Experimental data: patent US12076304B2, “Compositions comprising 15-HEPE and methods of treating or preventing hematologic disorders, and/or related diseases” (priority 2020, dated 2024)
Marks after values point to notes of the source that are not given here.

Key:
rats = conditions: oral once daily, 26 weeks, highest dose tested 1 mg/kg/day; cited from earlier work
Sprague Dawley rats [1] = test: 26 week oral gavage toxicity study in rats: haematology; assay type: in vivo; conditions: 26 weeks; for Red blood cell count (RBC), Mean / Red Cell Distribution Width (RDW), Mean / Reticulocyte count (RETIC), Mean: male rats; for Red blood cell count (RBC), Mean: vehicle 8.38; for Red Cell Distribution Width (RDW), Mean: vehicle 14.98; for Reticulocyte count (RETIC), Mean: vehicle 219.51
Protocol: (§1) The test and control items were administered to the appropriate animals by once daily oral gavage 7 days a week for a minimum of 26 weeks. The volume for each animal was based on the most recent body weight measurements. The doses were given using a syringe with attached gavage cannula. The first day of dosing was designated as Day 1. The dosing formulations were removed from the refrigerator and stirred for at least 30 minutes before dosing. The dosing formulations were also stirred continuously during dosing.
(§2) Sample Collection: Blood was collected via the tail vein unless immediately prior to necropsy, when blood was collected from the orbital sinus under non-recoverable isoflurane anesthesia. Blood was collected in ascending animal order unless samples were collected prior to necropsy where the order of euthanasia was followed. Additional blood samples were obtained (e.g. due to clotting of non-serum samples) if permissible sampling frequency and blood volume were not exceeded. After collection, samples were transferred to the appropriate laboratory for processing. Samples were collected according to the following table.
Hematology: A 0.5 mL blood sample was collected using the anticoagulant K2EDTA. Blood smears were labelled, stained, and stored. The blood smears were analyzed according to the following parameters.
(§3) Animals: The study used male and female Sprague Dawley rats purchased from Charles River UK Limited (Margate, Kent, UK). The target age at the initial dosing was 7-8 weeks. The target weight at the initial dosing was 175-300 g (males) and 120-250 g (females). Each animal was identified using a subcutaneously implanted electronic cylindrical, “glass-sealed” TROVAN microchip.

[2] = 0.5% HPMC dosing formulations; same preparation and storage conditions (4° C.); concentrations bracketing those used; cited from earlier work
Sprague Dawley rats [3] = test: 26 week oral gavage toxicity study in rats: tolerability, clinical signs; assay type: in vivo; conditions: 6 g/kg/day oral gavage, replaced with 3 g/kg/day
Protocol: as §1
Due to the onset of clinical signs, including hunched posture, erect fur and abnormal gait and body weight loss, animals 3206M, 3515F and 3703F were given a dosing holiday from Day 45 and remaining Group 3 animals were given a dosing holiday from Day 48. Animals will start dosing at the lower dose level (3000 mg/kg/day) from Day 64. The following tables illustrate the treatments (Table 23) and animal groupings (Table 24) that were used in the study.
Mortality/moribundity checks were made daily. […] Animals were not removed from the cage during observation, unless necessary for identification or confirmation of possible findings.
Post-dose observations were made regularly throughout the day. […] The onset, intensity, and duration of these signs were recorded; particular attention was paid to the animals during and for the first hour after dosing. […]

Sprague Dawley rats [4] = test: 26 week oral gavage toxicity study in rats: coagulation; assay type: in vivo; conditions: 26 weeks; for Fibrinogen (FIB), Mean / Prothrombin Time (PT), Mean / Activated Partial Thromboplastic Time (APTT), Mean: male rats; for Fibrinogen (FIB), Mean: vehicle 2.61; for Prothrombin Time (PT), Mean: vehicle 10.25; for Activated Partial Thromboplastic Time (APTT), Mean: vehicle 12.92; for APTT compared to control / FIB concentration compared to control / PT compared to control: rats
Protocol: as §1, §2
Coagulation: A 0.5 mL blood sample was collected using the anticoagulant 3.8% (w/v) trisodium citrate for processing to plasma. To assess coagulation the following coagulation parameters were measured.
as §3

[5] = test system: TGF-β-stimulated intracellular signaling (SMAD2/3 phosphorylation); test: TGF-β-stimulated SMAD2/3 phosphorylation in LX2 liver stellate cells; assay type: cell-based, human; conditions: 0 μM to 100 μM for 24 hours, then 30 min TGF-β
[6] = test system: TGF-β induced epithelial mesenchymal transition (EMT) protein production; test: TGF-β induced EMT protein production in HepG2 cells; assay type: cell-based, human; conditions: increasing doses for 1 hour, then 200 pM TGF-β for 48 hours
Protocol: (§4) The effects of 15-HEPE on TGF-β-induced signaling and cellular responses were determined. To test the effect of 15-HEPE on TGF-β-induced signaling, the activities of 15-HEPE to regulate TGF-β-stimulated Smad2 phosphorylation and nuclear translocation, both of which are key signaling events leading to TGF-β-induced cellular responses, were tested. One important biological activity of TGF-β is transcriptional activation of genes responsible for epithelial-mesenchymal transition (EMT), which is a crucial event in wound healing, tissue fibrosis, and cancer progression. The effect of 15-HEPE on TGFβ-induced epithelial mesenchymal transition related proteins (such as fibronectin, PAI-1, and N-cadherin etc.) expression in HepG2 and LXR cells were assessed. HepG2 cells (human hepatoma cell line) were treated in increasing doses of 15-HEPE stage II in DMEM containing 0.1% of FBS for 1 hour and continually stimulated with or without 200 picomolar (pM) of TGF-β for 48 hours.
(§5) HepG2 cells (human hepatoma cell line) were treated in increasing doses of 15-HEPE stage II in DMEM containing 0.1% of FBS for 1 hour and continually stimulated with or without 200 picomolar (pM) of TGF-β for 48 hours. The two panels shown in FIG. 18A are two separate experiments run under the same experimental conditions.

[7] = test system: TβR-II (type II TGF-β receptor); test: Sucrose density gradient analysis in Mv1Lu cells, TβR-II; assay type: cell-based, mink; conditions: for translocation and degradation of type II TGF-β receptors: summary of Example 3, free acid or ethyl ester form
Protocol: (§6) Sucrose gradient ultracentrifugation and confocal microscopy were used to identify 15-HEPE induced microdomain translocation of TGF-β receptors […]. Sucrose density gradient analysis of TGF-β receptors was conducted in the plasma membranes of Mv1Lu cells (mink lung epithelial cell) treated with 100 μM of 15-HEPE and an equal volume of DMSO (dimethyl sulfoxide) at 37° C. for 0, 1, 4, and 24 hours, and the cell lysates from these treated cells were subjected to sucrose density gradient ultracentrifugation. The sucrose gradient fractions were then analyzed by Western blot analysis using anti-Tβ(type I TGF-β receptor), anti-TβR-II (type II TGF-β receptor), anti-TβR-III (type III TGF-β receptor, betaglycan), anti-EGFR (epidermal growth factor receptor), and anti-caveolin-1 antibodies. The lipid raft/caveolae, and non-lipid raft microdomain localization of TβR-I, TβR-II, TβR-III, EGFR and caveolin-1 in the plasma membrane of untreated cells or cells treated with 15-HEPE were assessed to determine the effects of 15-HEPE on the membrane microdomain localization of the TGF-β receptors.
A 15-HEPE sucrose density gradient analysis of TGF-β receptors was conducted in the plasma membranes of mink lung epithelial cell (Mv1 Lu) cells treated with 100 μM of 15-HEPE and an equal volume of dimethyl sulfoxide (DMSO) at 37° C. for 0, 1, 4, and 24 hours, and the cell lysates from these treated cells were subjected to sucrose density gradient ultracentrifugation. The sucrose gradient fractions were then analyzed by Western blot analysis using anti-TβR-I (type I TGF-β receptor—FIG. 18C), anti-TβR-II (type II TGF-β receptor-FIG. 18D), anti-TβR-III (type III TGF-β receptor, betaglycan-FIG. 18E), anti-EGFR (epidermal growth factor receptor-FIG. 18F), and anti-caveolin-1 antibodies (FIG. 18G). Fractions 4 to 5 contained lipid rafts/caveolae whereas fractions 7-10 were non-lipid raft fractions. […] Stars(*) indicate 15-HEPE increased abundance of TβR-I (24 hours) in the fraction in comparison with that of the control and shorter treatment durations (FIG. 18C). […] The triangles (▾) indicate translocation and decreased abundance of TβR-II in the fraction in comparison with control cells (FIG. 18D).

[8] = test system: EGFR (epidermal growth factor receptor); test: Sucrose density gradient analysis in Mv1Lu cells, EGFR; assay type: cell-based, mink; conditions: 100 μM, 0-24 hours
Protocol: as §6, with “receptors. […]” for “receptors.”

[9] = test system: TβR-I (type I TGF-β receptor); test: Sucrose density gradient analysis in Mv1Lu cells, TβR-I; assay type: cell-based, mink; conditions: 100 μM
Protocol: as §6, with “receptors. […]” for “receptors.”

type II TGF-β receptor = target: T1, type II TGF-β receptor (Homo sapiens, UniProt P37173); test: Type II TGF-β receptor degradation in HepG2 cells; assay type: cell-based; conditions: increasing doses for 1 hour, then 200 pM TGF-β for 48 hours
T1 construct: endogenous in cells; host or cells: HepG2
T1 sequence (P37173 23-567): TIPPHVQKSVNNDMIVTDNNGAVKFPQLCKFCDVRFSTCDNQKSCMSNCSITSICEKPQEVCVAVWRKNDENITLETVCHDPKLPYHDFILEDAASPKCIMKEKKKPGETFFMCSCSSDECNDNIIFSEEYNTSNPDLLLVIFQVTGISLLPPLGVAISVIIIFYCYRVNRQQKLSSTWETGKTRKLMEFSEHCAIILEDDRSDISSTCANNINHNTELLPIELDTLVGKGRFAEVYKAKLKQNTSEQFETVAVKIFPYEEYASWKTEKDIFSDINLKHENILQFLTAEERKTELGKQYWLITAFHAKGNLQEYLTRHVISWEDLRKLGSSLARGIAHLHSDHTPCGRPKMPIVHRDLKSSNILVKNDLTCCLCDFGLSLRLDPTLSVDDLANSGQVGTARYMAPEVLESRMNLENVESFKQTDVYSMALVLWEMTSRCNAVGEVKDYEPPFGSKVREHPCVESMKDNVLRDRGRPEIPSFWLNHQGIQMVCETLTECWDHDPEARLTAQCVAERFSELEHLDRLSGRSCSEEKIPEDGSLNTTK
Protocol: as §4, §5

[10] = test system: TβR-III (type III TGF-β receptor, betaglycan); test: Sucrose density gradient analysis in Mv1Lu cells, TβR-III; assay type: cell-based, mink; conditions: 100 μM, 0-24 hours
Protocol: as §6, with “receptors. […]” for “receptors.”

caveolin-1 = test: Sucrose density gradient analysis in Mv1Lu cells, caveolin-1; assay type: cell-based, mink; conditions: 100 μM, 0-24 hours
Protocol: as §6, with “receptors. […]” for “receptors.”

[11] = 6000/3000 mg/kg/day oral gavage

CC/C=C\C[C@H](O)/C=C/C=C\C/C=C\C/C=C\CCCC(=O)OCC [15(S)-HEPE EE]
adverse effects at the highest dose tested (rats): no adverse effects
Red blood cell count (RBC), Mean (Sprague Dawley rats [1]; 2000 mg/kg/day oral gavage): 8.67 10^∧12/L
Red Cell Distribution Width (RDW), Mean (Sprague Dawley rats [1]; 2000 mg/kg/day oral gavage): 13.91** %
Reticulocyte count (RETIC), Mean (Sprague Dawley rats [1]; 2000 mg/kg/day oral gavage): 154.60* 10^∧9/L
Red blood cell count (RBC), Mean (Sprague Dawley rats [1]; [11]): 8.81** 10^∧12/L
Red Cell Distribution Width (RDW), Mean (Sprague Dawley rats [1]; [11]): 13.60** %
Reticulocyte count (RETIC), Mean (Sprague Dawley rats [1]; [11]): 141.46** 10^∧9/L
RDW compared to control (Sprague Dawley rats [1]; rats, 2 g/kg/day dose): significant decrease
RETIC compared to control (Sprague Dawley rats [1]; rats, 2 g/kg/day dose): significant decrease
RBC compared to control (Sprague Dawley rats [1]; rats, 3 g/kg/day dose): significant increase
RDW compared to control (Sprague Dawley rats [1]; rats, 3 g/kg/day dose): significant decrease
RETIC compared to control (Sprague Dawley rats [1]; rats, 3 g/kg/day dose): significant decrease
stability of the test item in the vehicle [2]: stable
tolerability of the highest dose (Sprague Dawley rats [3]): not well tolerated
Fibrinogen (FIB), Mean (Sprague Dawley rats [4]; 2000 mg/kg/day oral gavage): 2.35** g/L
Prothrombin Time (PT), Mean (Sprague Dawley rats [4]; 2000 mg/kg/day oral gavage): 10.69** sec
Activated Partial Thromboplastic Time (APTT), Mean (Sprague Dawley rats [4]; 2000 mg/kg/day oral gavage): 15.03* sec
Fibrinogen (FIB), Mean (Sprague Dawley rats [4]; [11]): 2.26** g/L
Prothrombin Time (PT), Mean (Sprague Dawley rats [4]; [11]): 10.81** sec
Activated Partial Thromboplastic Time (APTT), Mean (Sprague Dawley rats [4]; [11]): 15.73** sec
APTT compared to control (Sprague Dawley rats [4]; 2 g/kg/day dose): significant increase
FIB concentration compared to control (Sprague Dawley rats [4]; 2 g/kg/day dose): significant decrease
PT compared to control (Sprague Dawley rats [4]; 2 g/kg/day dose): significant increase
APTT compared to control (Sprague Dawley rats [4]; 3 g/kg/day dose): significant increase
FIB concentration compared to control (Sprague Dawley rats [4]; 3 g/kg/day dose): significant decrease
PT compared to control (Sprague Dawley rats [4]; 3 g/kg/day dose): significant increase

CC/C=C\C[C@H](O)/C=C/C=C\C/C=C\C/C=C\CCCC(=O)OCC [15-HEPE EE, 15-HEPE ethyl ester]
TGF-β-stimulated intracellular signaling (SMAD2/3 phosphorylation) [5]: inhibited
TGF-β induced EMT (pro-fibrotic) protein production [6]: blocked
translocation and degradation of type II TGF-β receptors [7]: induced translocation and degradation

CC/C=C\CC(O)/C=C/C=C\C/C=C\C/C=C\CCCC(=O)O (stereo not shown) [15-HEPE, 15-hydroxy-eicosa-5Z,8Z,11Z,13E,17Z-pentaenoic acid]
localization and abundance of EGFR [8]: did not change
TGF-β-stimulated intracellular signaling (SMAD2/3 phosphorylation) [5]: inhibited
abundance of TβR-I proteins ([9]; 37° C., 0, 1, 4, 24 hours): did not affect
translocation of TβR-I to lipid-raft ([9]; 24 hours treatment): induced translocation
degradation of type II TGF-β receptor (type II TGF-β receptor): induced degradation
localization and abundance of TβR-III [10]: did not change
TGF-β induced EMT (pro-fibrotic) protein production [6]: blocked
localization and abundance of caveolin-1 (caveolin-1): did not change
TβR-II degradation ([7]; Mv1Lu cells, 100 μM, 24 hours treatment): induce degradation
TβR-II translocation ([7]; Mv1Lu cells, 100 μM, from 1 to 4 hours): induced TβR-II translocation
translocation and degradation of type II TGF-β receptors [7]: induced translocation and degradation
